Laboratory results from patent publication US20180318275A1, “COMBINATION THERAPY USING PI3K INHIBITOR AND MDM2 INHIBITOR” (Novartis AG, priority 2015, published 2018).

Legend:
Assay type in all cases: cell-based
[1] = test system: 5 TP53 wild type colorectal cancer cell lines; test: Cell proliferation over the cell line panel, Example 2; conditions: Example 2, panel of 5 lines, 13 nM-10 μM
Procedure: To test the effect of the combination of COMPOUND A and COMPOUND B on cell proliferation cells were plated in black 384-well microplates with clear bottom (Matrix/Thermo Scientific, Catalog number 4332) in 50 μL media per well at cell densities between 500 and 1250 cells/well (Table 1) and allowed to incubate at 37 degrees, 5% CO2 for 24 h. After 24 h one 384-well plate per cell line was prepared for cell counting by microscopy (see below) without receiving treatment (=‘baseline’). The other cell plates were treated by transferring 25 nL of the 2000× compound from drug master plates using an ATS acoustic liquid dispenser (ECD Biosystems) and resulting in a final 1× concentration. COMPOUND A was used over a final concentration range of 13 nM-10 μM, and COMPOUND B was used over a final concentration range of 13 nM-10 μM (7 1:3 dilution steps). […] Caspase 3/7 induction was measured as a proxy for apoptosis induced by the treatments. Cells were treated for 72 h to 96 h depending on their doubling time (Table 1), and Caspase 3/7 activation was measured every 24 h by microscopy using an InCell Analyzer 2000 (GE Healthcare) equipped with a 4× objective and FITC excitation/emission filters. […] All cells per well/treatment were captured in a single image by fluorescence microscopy using an InCell Analyzer 2000 (GE Healthcare) equipped with a 4× objective and DAPI excitation/emission filters. […]

LoVo = test: Cell proliferation (cell count by microscopy), Example 2; conditions: Homo sapiens, single agent, 96 h, cell count relative to DMSO
Procedure: (§1) COMPOUNDS A and B were dissolved in 100% DMSO (Sigma, Catalog number D2650) at concentrations of 20 mM and stored at −20° C. until use. Compounds were arrayed in drug master plates (Greiner, Catalog number 788876) and serially diluted 3-fold (7 steps) at 2000× concentration.
(§2) To test the effect of the combination of COMPOUND A and COMPOUND B on cell proliferation cells were plated in black 384-well microplates with clear bottom (Matrix/Thermo Scientific, Catalog number 4332) in 50 μL media per well at cell densities between 500 and 1250 cells/well (Table 1) and allowed to incubate at 37 degrees, 5% CO2 for 24 h. After 24 h one 384-well plate per cell line was prepared for cell counting by microscopy (see below) without receiving treatment (=‘baseline’). The other cell plates were treated by transferring 25 nL of the 2000× compound from drug master plates using an ATS acoustic liquid dispenser (ECD Biosystems) and resulting in a final 1× concentration. COMPOUND A was used over a final concentration range of 13 nM-10 μM, and COMPOUND B was used over a final concentration range of 13 nM-10 μM (7 1:3 dilution steps). For the combination of COMPOUND A with COMPOUND B the single agents were combined at a fixed ratio of 1:1 at each dilution resulting in 7 combination treatments. […] After compound addition 50 nL of 2 mM CellEvent Caspase-3/7 Green Detection Reagent (ThermoFisher, Catalog number C10423) were added to one of the three replicates using the HP D300 Digital Dispenser (Tecan). Caspase 3/7 induction was measured as a proxy for apoptosis induced by the treatments. Cells were treated for 72 h to 96 h depending on their doubling time (Table 1), and Caspase 3/7 activation was measured every 24 h by microscopy using an InCell Analyzer 2000 (GE Healthcare) equipped with a 4× objective and FITC excitation/emission filters. At the end of the treatment cells were prepared for cell counting by microscopy. Cells were fixed and permeabilised for 45 minutes in 4% PFA (Electron Microscopy Sciences, Catalog number 15714), 0.12% TX-100 (Electron Microscopy Sciences, Catalog number 22140) in PBS (Boston Bioproducts, Catalog number BM-220). After washing cells three times with PBS their DNA was stained for 30 minutes with Hoechst 33342 (ThermoFisher, Catalog number H3570) at a final concentration of 4 μg/mL. Cells were washed three times with PBS and then plates were heat-sealed using a PlateLoc (Agilent Technologies) with aluminum seals (Agilent Technologies, Catalog number 06644-001) and stored at 4° C. until imaging. All cells per well/treatment were captured in a single image by fluorescence microscopy using an InCell Analyzer 2000 (GE Healthcare) equipped with a 4× objective and DAPI excitation/emission filters.
(§3) Images were analyzed after adapting previously described methods (Horn, Sandmann et al. 2011, Nat. Methods 8(4): 341-346) and using the Bioconductor package EBImage in R (Pau, Fuchs et al. 2010, Bioinformatics 26(7):979-981). Objects in both channels, DAPI (for Hoechst/DNA) and FITC (for Caspase 3/7), were segmented separately by adaptive thresholding and counted. A threshold for Caspase 3/7 positive objects was defined manually per cell line after comparing negative controls (DMSO) and positive controls (Staurosporine). By analyzing 17 additional object/nuclei features in the DNA channel (shape and intensity features) debris/fragmented nuclei were identified. To this end per cell line the distributions of the additional features between positive controls (Staurosporine) and negative controls (DMSO) were compared manually. Features that could differentiate between the conditions (e.g. a shift in the distribution of a feature measurement comparing DMSO with Staurosporine) where used to define the ‘debris’ population versus the population of ‘viable’ nuclei. The debris counts were subtracted from raw nuclei counts. The resulting nuclei number was used as measure of cell proliferation (‘cell count’). […]

RKO = test: as above; conditions: Homo sapiens, single agent, 72 h, cell count relative to DMSO
Procedure: as §1, §2, §3

HCT-116 = test: as above; conditions: Homo sapiens; HCT-116, single agent, 72 h, cell count relative to DMSO
Procedure: as §1, §2, §3

GP2d = test: as above; conditions: single agent, 72 h, cell count relative to DMSO, unit from text b187 (micromolar, top dose 10 μM)
Procedure: as §1, §2, §3

LS-180 = test: as above; conditions: Homo sapiens, LS180; LS-160 (so in the source), single agent, 72 h, cell count relative to DMSO
Procedure: as §1, §2, §3

For `Cc1nc(NC(=O)N2CCC[C@H]2C(N)=O)sc1-c1ccnc(C(C)(C)C(F)(F)F)c1` [COMPOUND A, (S)-Pyrrolidine-1,2-dicarboxylic acid 2-amide 1-({4-methyl-5-[2-(2,2,2-trifluoro-1,1-dimethyl-ethyl)-pyridin-4-yl]-thiazol-2-yl}-amide)], the “Single agent growth inhibition, in words” value [1] was “inhibited the growth of 2 of the cell lines with micromolar IC50 values, and was active only at the highest dose (10 μM) in the 3 other lines”, the IC50 (LoVo) was greater than 10000 nM and the IC50 (RKO) was 3900 nM. It also gave an IC50 (HCT-116) of 9800 nM, an IC50 (GP2d) of 500 nM and an IC50 (LS-180) greater than 10000 nM.
In the case of `COc1cc2c(cc1OC(C)C)[C@H](c1ccc(Cl)cc1)N(c1ccc(N(C)C[C@H]3CC[C@H](N4CCN(C)C(=O)C4)CC3)cc1)C(=O)C2` [COMPOUND B, (S)-1-(4-Chloro-phenyl)-7-isopropoxy-6-methoxy-2-(4-{methyl-[4-(4-methyl-3-oxo-piperazin-1-yl)-trans-cyclohexylmethyl]-amino}-phenyl)-1,4-dihydro-2H-isoquinolin-3-one], the “Single agent growth inhibition, in words” value [1] is reported as “inhibited the growth of cell lines with sub-micromolar to micromolar IC50 values”, the IC50 (LoVo) is reported as 600 nM and the IC50 (RKO) is reported as 1200 nM. For the same compound, the IC50 (HCT-116) was 100 nM, the IC50 (GP2d) was 800 nM and the IC50 (LS-180) was 700 nM.
